# Test results published in PubChem BioAssay (NCI).
# Several values for one entry are separate records, joined by “and”; a condition that tells them apart may be missing. Identical values can stand only once.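 Five compound concentrations were applied to cells in 96-well plates for 48 hours; endpoints were derived by simple linear interpolation of the resulting dose-response curve. GI50 is the concentration that inhibits growth by half. TGI: concentration producing complete growth inhibition.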
# Tests used:
# Experiment in all cases: growth of human tumour cells (NCI), 48 h
# SF-268 CNS = test system: SF-268 CNS
# MDA-MB-231 breast = test system: MDA-MB-231 breast
# SN12C renal = test system: SN12C renal
# U251 CNS = test system: U251 CNS
# NCI-H460 lung = test system: NCI-H460 lung
# SK-MEL-28 melanoma = test system: SK-MEL-28 melanoma
# BT-549 breast = test system: BT-549 breast
# UACC-62 melanoma = test system: UACC-62 melanoma
# HCC-2998 colon = test system: HCC-2998 colon
# HOP-92 NSCLC = test system: HOP-92 NSCLC
Structure (SMILES),TGI (SF-268 CNS) [µM],TGI (MDA-MB-231 breast),TGI (SN12C renal) [µM],TGI (U251 CNS) [µM],TGI (NCI-H460 lung) [µM],TGI (SK-MEL-28 melanoma) [µM],TGI (BT-549 breast) [µM],TGI (UACC-62 melanoma) [µM],TGI (HCC-2998 colon) [µM],TGI (HOP-92 NSCLC),GI50 (SF-268 CNS),GI50 (MDA-MB-231 breast),GI50 (SN12C renal),GI50 (U251 CNS),GI50 (NCI-H460 lung),GI50 (SK-MEL-28 melanoma),GI50 (BT-549 breast),GI50 (UACC-62 melanoma),GI50 (HCC-2998 colon),GI50 (HOP-92 NSCLC)
Cc1cc(=O)oc2cc(OC(=O)N(CCCl)CCCl)ccc12,> 100,> 100 µM,> 100,> 100,> 100,> 100,> 100,> 100,> 100,95.9 µM,,,,,,,,,,
Clc1ccc2c(c1)C(N1CCNCC1)=Nc1ccccc1O2,11.8,4.02 µM,13.6,2.99,5.41,2.96,10.2,3.1,2.92,2.8 µM,2.65 µM,1.79 µM,2.87 µM,1.51 µM,2.46 µM,1.61 µM,2.42 µM,1.63 µM,1.58 µM,0.374 µM
Cn1cc(C2=C(c3cn(C)c4cc(N)ccc34)C(=O)NC2=O)c2ccccc21,13.7,16.2 µM,17,10.2,> 25,18.4,14.6,8.39,> 25,> 18.9 µM,3.67 µM,4.09 µM,3.44 µM,1.41 µM,1.4 µM,4.71 µM,4.32 µM,3.44 µM,1.5 µM,5.86 µM
COc1cc(/C=C2\CN(C(=O)CCN3CCC(=NO)CC3)C/C(=C\c3cc(OC)c(OC)c(OC)c3)C2=O)cc(OC)c1OC,1.95,1.11 µM,0.695,1.01,0.847,0.766,1.23,0.411,0.724,2.04 µM,0.535 µM,0.323 µM,0.241 µM,0.291 µM,0.282 µM,0.279 µM,0.332 µM,0.182 µM,0.34 µM,0.676 µM
CSc1nsc(S/C=C\C(=O)c2ccc(C)cc2)n1,> 58.5,27.5 µM,35.9,41.5,> 73.5,> 45.1,40.3,38.2,33.8,35.1 µM,21.5 µM,11.3 µM,18.3 µM,17.2 µM,26.7 µM,13.4 µM,17.5 µM,18.5 µM,17.8 µM,17.3 µM
CCOC(=O)c1c2c(n(Cc3ccccc3)c1C)-c1nc(Cc3ccccc3)[nH]c1C(=O)C2=O,4.59,2.67 µM,3.21,3.15,4.22,3.42,2.99,3.55,4.09,2.45 µM,1.91 µM,1.37 µM,1.58 µM,1.77 µM,1.96 µM,2 µM,1.43 µM,1.74 µM,2.6 µM,1.17 µM
CCCCNC(=O)Oc1ccc(/C(=C(/CC)Cc2ccccc2)c2ccc(OCCN3CCCCCC3)cc2)cc1,> 100,36.6 µM,83.6,35,33.8,33.1,> 100,38,38.8,47.2 µM,59.8 µM,19.2 µM,29.6 µM,18.7 µM,18.6 µM,16.5 µM,46.5 µM,19.6 µM,18.8 µM,19 µM
COc1cc2ncnc3c2cc1OCCCCCN(C)Cc1ccc(Br)cc1N3,> 100,50.9 µM and > 10 µM,> 100,> 100,> 100,> 100,> 100,> 100,> 100,71.5 µM and > 10 µM,29.5 µM and 4.01 µM,10.6 µM and 7.51 µM,5.45 µM and 1.32 µM,34.3 µM and 5.33 µM,3.44 µM and 1.27 µM,6.68 µM and 7.54 µM,21.8 µM and 6.87 µM,2.35 µM and 0.969 µM,17.7 µM and > 10 µM,3.61 µM and 1 µM
Oc1c(CN2CCCC2)cc(CSCc2ccccc2)c2cccnc12,14.9,12.2 µM,13.5,11.9,2.83,13.6,12.1,2.29,11.9,17.6 µM,0.752 µM,0.987 µM,1.69 µM,0.789 µM,0.498 µM,1.85 µM,2.27 µM,0.363 µM,1.39 µM,4.52 µM
COC(=O)C(=O)C(C(=O)C(N)=O)c1nc2ccc(C(=O)c3ccccc3)cc2[nH]c1=O (configuration not stated),> 100,> 100 µM,> 100,> 100,> 100,> 100,> 100,> 100,> 100,> 100 µM,,,,,,,,,,
CC(C(=O)O)c1ccc(-c2ccccc2)c(F)c1 (configuration not stated),> 100,> 100 µM,> 100,> 100,> 100,> 100,> 100,> 100,> 100,> 100 µM,,,,,,,,,,47.6 µM
C/C(=N\NC(=S)N1CCN(c2ccccn2)CC1)c1nccs1,> 54.2,20 µM,15.9,9.8,2.3,19.9,18,0.834,14.9,,,0.796 µM,,,,,,,,0.017 µM
O=C(Nc1ccc(Br)cc1)Nc1nn(C(=O)Nc2ccc(Br)cc2)c2ccccc12,> 63.9,> 100 µM,> 100,43.6,> 100,> 100,> 93.7,> 100,> 100,> 65.5 µM,17.6 µM,27.2 µM,43.9 µM,13.4 µM,34.1 µM,96.9 µM,34.5 µM,36.5 µM,> 100 µM,24.4 µM
CNCCNc1nc2ccccc2c2c(=O)c3cc(F)ccc3sc12,4.17,3.18 µM,3.29,3.18,3.32,3.38,14.9,3.18,3.45,7.42 µM,1.69 µM,1.61 µM,1.61 µM,1.63 µM,1.78 µM,1.85 µM,3.59 µM,1.73 µM,1.7 µM,1.73 µM
